According to ChEMBL document CHEMBL3217504, “Potent growth inhibitory activity of ()-platencin towards multi-drug-resistant and extensively drug-resistant Mycobacterium tuberculosis” (2013):
In brackets after ≈: the same amount, converted by molar mass.

Legend:
Assay type in all cases: functional
[1] = test system: Mycobacterium tuberculosis; assay: Ratio of MBC99.9 to MIC for Mycobacterium tuberculosis LV54
[2] = test system: Mycolicibacterium smegmatis; assay: Antimycobacterial activity against Mycobacterium smegmatis MC2 155 under hypoxic condition after 96 hrs; conditions: str. MC2 155, 96 h
[3] = test system: Mycolicibacterium smegmatis; assay: Antimycobacterial activity against Mycobacterium smegmatis ICHO1001 harboring pMV261
[4] = test system: Mycolicibacterium smegmatis; assay: Antimycobacterial activity against Mycobacterium smegmatis ICHO1018 overexpressing KasB
[5] = test system: Mycolicibacterium smegmatis; assay: Selectivity ratio of MIC for Mycobacterium smegmatis ICHO1018 overexpressing KasB to MIC for wild-type Mycobacterium smegmatis MC2 155
[6] = test system: Mycobacterium tuberculosis; assay: Antimycobacterial activity against Mycobacterium tuberculosis H37Rv ATCC 27294 by microbroth dilution method
[7] = test system: Mycolicibacterium smegmatis; assay: Antimycobacterial activity against Mycobacterium smegmatis ICHO1019 overexpressing FabH
[8] = test system: Mycolicibacterium smegmatis; assay: Antimycobacterial activity against wild-type Mycobacterium smegmatis MC2 155; conditions: str. MC2 155
[9] = test system: Mycobacterium tuberculosis; assay: Antimycobacterial activity against Mycobacterium tuberculosis LV54 by microbroth dilution method
[10] = test system: Mycolicibacterium smegmatis; assay: Antimycobacterial activity against Mycobacterium smegmatis MC2 155 under aerobic condition after 48 hrs by MTT assay; conditions: str. MC2 155, 48 h
[11] = test system: Mycolicibacterium smegmatis; assay: Antimycobacterial activity against Mycobacterium smegmatis ICHO1017 overexpressing KasA
[12] = test system: Mycobacterium tuberculosis; assay: Ratio of MBC99.9 to MIC for Mycobacterium tuberculosis H37Rv ATCC 27294

Structure (SMILES) | Ratio [1] | MIC [2] [mg/L] | MIC [3] [mg/L] | MIC [4] [mg/L] | Ratio [5] | MIC [6] [mg/L] | MIC [7] [mg/L] | MIC [8] [mg/L] | MIC [9] [mg/L] | MIC [10] [mg/L] | MIC [11] [mg/L] | Ratio [12]
C=C1C[C@@]23C=CC(=O)[C@@](C)(CCC(=O)Nc4c(O)ccc(C(=O)O)c4O)[C@@H]2C[C@@H]1CC3 (racemic) [PLATENCIN] | >64 | 0.3 (≈ 0.705 µM) | 0.5 (≈ 1.18 µM) | > 8.5 | >17 | 2 (≈ 4.7 µM) | 1 (≈ 2.35 µM) | 0.5 (≈ 1.18 µM) | 1 (≈ 2.35 µM) | 0.5 (≈ 1.18 µM) | 1 (≈ 2.35 µM) | >64
NNC(=O)c1ccncc1 [ISONIAZID] | – | 25 (≈ 182 µM) | – | – | – | – | – | – | – | 2.5 (≈ 18.2 µM) | – | –
